Target: T1, ABL1 T315I (Homo sapiens, UniProt P00519, T315I)
T1 construct: purchased Thermo Fisher Scientific (Life Technologies) SelectScreen
Assay: SelectScreen Z'LYTE
Assay type: biochemical
Outline: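 NU5455 was profiled across the SelectScreen Broad panel of kinase activity and binding assays. Z'LYTE reactions such as CSF1R ran at apparent Km ATP, while the Adapta CAMK1 assay used ATP listed as 10. Values are given as percent.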

CN(C(=O)CN1CCOCC1)c1ccc2sc3c(-c4cccc5c(=O)cc(N6CC7CCC(C6)O7)oc45)cccc3c2c1 [NU5455]
inhibition at 1 µM: -3%
